# ChEMBL document CHEMBL1208746, “3-Cyano-5-fluoro-N-arylbenzamides as negative allosteric modulators of mGlu(5): Identification of easily prepared tool compounds with CNS exposure in rats” (Bioorg Med Chem Lett, 2010)
# Activity calls are given as the source filed them. No cut-off for these calls is given here.
# Tests used:
# [1] = target: T1, Metabotropic glutamate receptor 5 (Rattus norvegicus, UniProt P31424); experiment: Antagonist activity at rat mGlu5 receptor expressed in HEK293A cells assessed as inhibition of glutamate-induced calcium mobilization; assay type: functional, cell-based, HEK293-A
# [2] = target: Metabotropic glutamate receptor 5 (Rattus norvegicus) (UniProt P31424); experiment: Antagonist activity at rat mGlu5 receptor expressed in HEK293A cells assessed as inhibition of glutamate-induced calcium mobilization at 30 uM relative to glutamate; assay type: functional, cell-based; details: HEK293-A
# [3] = target: Metabotropic glutamate receptor 2 (Homo sapiens) (UniProt Q14416); experiment: Inhibition of mGlu2 receptor at 10 uM
# [4] = target: Metabotropic glutamate receptor 3 (Homo sapiens) (UniProt Q14832); experiment: Inhibition of mGlu3 receptor at 10 uM
# [5] = target: Metabotropic glutamate receptor 8 (Homo sapiens) (UniProt O00222); experiment: Inhibition of mGlu8 receptor at 10 uM
# [6] = target: T1, Metabotropic glutamate receptor 5; experiment: Displacement of [3H]methoxy-PEPy from rat mGlu5 receptor expressed in HEK293A cells after 60 mins by scintillation counting; assay type: cell-based, HEK293-A
# Plasma [7] = experiment: Protein binding in human plasma by rapid equilibrium dialysis method; assay type: ADME, cell-free
# [8] = target: Metabotropic glutamate receptor 7 (Homo sapiens) (UniProt Q14831); experiment: Inhibition of mGlu7 receptor at 10 uM
# [9] = target: Metabotropic glutamate receptor 4 (Homo sapiens) (UniProt Q14833); experiment: Inhibition of mGlu4 receptor at 10 uM
# [10] = Metabolic stability in human liver microsomes assessed as compound remaining at 1 uM after 15 mins in presence of NADPH; assay type: ADME, Microsome; details: read-out: Stability
# [11] = Metabolic stability in rat liver microsomes assessed as compound remaining at 1 uM after 15 mins in presence of NADPH; assay type: ADME, Microsome; details: read-out: Stability
# Plasma [12] = experiment: Protein binding in rat plasma by rapid equilibrium dialysis method; assay type: ADME, cell-free
# [13] = target: Metabotropic glutamate receptor 1 (Homo sapiens) (UniProt Q13255); experiment: Inhibition of mGlu1 receptor at 10 uM
# Plasma [14] = experiment: Cmax in Sprague-Dawley rat plasma at 10 mg/kg, ip after 0.25 to 4 hrs; assay type: ADME, organism-based; design: dose 10 mg/kg, route intraperitoneal; details: in vivo
# [15] = AUC (0-4 hrs) in Sprague-Dawley rat brain at 10 mg/kg, ip; assay type: ADME, organism-based; design: time < 4 hr, dose 10 mg/kg, route intraperitoneal
# Plasma [16] = experiment: Tmax in Sprague-Dawley rat plasma at 10 mg/kg, ip after 0.25 to 4 hrs; assay type: ADME, organism-based; design: dose 10 mg/kg, route intraperitoneal; details: in vivo
# [17] = AUC (0-4 hrs) in Sprague-Dawley rat plasma at 10 mg/kg, ip; assay type: ADME, organism-based; design: time < 4 hr, dose 10 mg/kg, route intraperitoneal
# Brain = experiment: Tmax in Sprague-Dawley rat brain at 10 mg/kg, ip after 0.25 to 4 hrs; assay type: ADME, organism-based; design: dose 10 mg/kg, route intraperitoneal; details: in vivo
# [18] = Ratio of drug level brain to plasma in Sprague-Dawley rat at 10 mg/kg, ip; assay type: ADME, organism-based; design: dose 10 mg/kg, route intraperitoneal; details: brain and plasma
# [19] = Cmax in Sprague-Dawley rat brain at 10 mg/kg, ip after 0.25 to 4 hrs; assay type: ADME, organism-based; design: dose 10 mg/kg, route intraperitoneal
# Chain of Metabotropic glutamate receptor 1 (Homo sapiens) (Q13255 19-1194 limits assumed): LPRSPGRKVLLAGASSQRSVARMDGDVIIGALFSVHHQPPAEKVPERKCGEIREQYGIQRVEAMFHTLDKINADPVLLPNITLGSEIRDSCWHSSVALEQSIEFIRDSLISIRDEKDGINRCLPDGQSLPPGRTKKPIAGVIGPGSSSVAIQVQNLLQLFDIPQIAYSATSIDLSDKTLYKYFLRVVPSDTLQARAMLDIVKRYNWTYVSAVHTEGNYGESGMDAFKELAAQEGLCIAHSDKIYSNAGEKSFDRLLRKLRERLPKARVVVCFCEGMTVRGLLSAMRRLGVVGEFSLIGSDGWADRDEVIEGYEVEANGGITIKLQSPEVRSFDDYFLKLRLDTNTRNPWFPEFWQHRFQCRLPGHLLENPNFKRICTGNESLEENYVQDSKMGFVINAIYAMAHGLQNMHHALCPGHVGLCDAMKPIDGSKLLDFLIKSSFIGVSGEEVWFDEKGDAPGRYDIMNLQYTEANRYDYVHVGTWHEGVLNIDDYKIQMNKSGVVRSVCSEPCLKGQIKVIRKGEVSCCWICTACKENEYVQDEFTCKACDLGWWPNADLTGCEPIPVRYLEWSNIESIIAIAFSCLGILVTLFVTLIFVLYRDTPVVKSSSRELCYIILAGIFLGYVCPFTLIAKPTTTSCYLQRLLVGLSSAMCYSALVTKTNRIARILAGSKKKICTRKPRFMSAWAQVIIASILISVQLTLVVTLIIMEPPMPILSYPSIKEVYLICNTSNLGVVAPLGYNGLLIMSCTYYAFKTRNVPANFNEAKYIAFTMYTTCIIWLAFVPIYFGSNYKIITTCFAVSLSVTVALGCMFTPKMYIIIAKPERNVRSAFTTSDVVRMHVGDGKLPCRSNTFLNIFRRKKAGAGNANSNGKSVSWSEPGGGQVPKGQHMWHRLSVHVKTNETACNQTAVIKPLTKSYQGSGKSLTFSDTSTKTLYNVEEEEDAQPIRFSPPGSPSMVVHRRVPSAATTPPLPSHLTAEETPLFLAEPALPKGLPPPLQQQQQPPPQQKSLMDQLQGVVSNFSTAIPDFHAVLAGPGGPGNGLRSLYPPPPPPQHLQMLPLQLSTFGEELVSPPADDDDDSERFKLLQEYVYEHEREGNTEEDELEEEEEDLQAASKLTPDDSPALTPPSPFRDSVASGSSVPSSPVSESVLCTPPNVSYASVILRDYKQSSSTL
# Chain of Metabotropic glutamate receptor 8 (Homo sapiens) (O00222 whole entry): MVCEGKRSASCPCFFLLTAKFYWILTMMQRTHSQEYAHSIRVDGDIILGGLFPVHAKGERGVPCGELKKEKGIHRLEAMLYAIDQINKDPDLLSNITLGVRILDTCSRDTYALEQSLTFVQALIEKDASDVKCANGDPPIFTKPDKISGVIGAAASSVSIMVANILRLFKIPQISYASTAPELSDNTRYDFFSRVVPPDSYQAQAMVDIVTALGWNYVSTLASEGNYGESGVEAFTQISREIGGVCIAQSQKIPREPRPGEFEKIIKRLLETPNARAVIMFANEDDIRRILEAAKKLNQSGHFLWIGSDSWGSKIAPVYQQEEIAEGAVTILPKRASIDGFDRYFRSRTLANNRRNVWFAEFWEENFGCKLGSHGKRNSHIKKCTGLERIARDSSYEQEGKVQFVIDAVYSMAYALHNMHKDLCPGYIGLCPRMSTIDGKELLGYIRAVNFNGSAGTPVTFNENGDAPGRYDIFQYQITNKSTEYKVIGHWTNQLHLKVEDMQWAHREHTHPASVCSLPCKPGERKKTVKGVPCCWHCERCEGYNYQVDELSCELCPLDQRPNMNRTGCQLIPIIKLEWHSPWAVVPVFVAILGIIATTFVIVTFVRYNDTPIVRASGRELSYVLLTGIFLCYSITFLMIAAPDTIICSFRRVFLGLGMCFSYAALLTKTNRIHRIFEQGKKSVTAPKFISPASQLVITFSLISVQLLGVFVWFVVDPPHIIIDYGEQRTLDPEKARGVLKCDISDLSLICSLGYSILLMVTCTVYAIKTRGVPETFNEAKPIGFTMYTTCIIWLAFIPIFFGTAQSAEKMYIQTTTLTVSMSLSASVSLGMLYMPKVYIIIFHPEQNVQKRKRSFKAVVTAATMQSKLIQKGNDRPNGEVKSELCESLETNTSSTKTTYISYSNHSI
# Chain of Metabotropic glutamate receptor 4 (Homo sapiens) (Q14833 whole entry): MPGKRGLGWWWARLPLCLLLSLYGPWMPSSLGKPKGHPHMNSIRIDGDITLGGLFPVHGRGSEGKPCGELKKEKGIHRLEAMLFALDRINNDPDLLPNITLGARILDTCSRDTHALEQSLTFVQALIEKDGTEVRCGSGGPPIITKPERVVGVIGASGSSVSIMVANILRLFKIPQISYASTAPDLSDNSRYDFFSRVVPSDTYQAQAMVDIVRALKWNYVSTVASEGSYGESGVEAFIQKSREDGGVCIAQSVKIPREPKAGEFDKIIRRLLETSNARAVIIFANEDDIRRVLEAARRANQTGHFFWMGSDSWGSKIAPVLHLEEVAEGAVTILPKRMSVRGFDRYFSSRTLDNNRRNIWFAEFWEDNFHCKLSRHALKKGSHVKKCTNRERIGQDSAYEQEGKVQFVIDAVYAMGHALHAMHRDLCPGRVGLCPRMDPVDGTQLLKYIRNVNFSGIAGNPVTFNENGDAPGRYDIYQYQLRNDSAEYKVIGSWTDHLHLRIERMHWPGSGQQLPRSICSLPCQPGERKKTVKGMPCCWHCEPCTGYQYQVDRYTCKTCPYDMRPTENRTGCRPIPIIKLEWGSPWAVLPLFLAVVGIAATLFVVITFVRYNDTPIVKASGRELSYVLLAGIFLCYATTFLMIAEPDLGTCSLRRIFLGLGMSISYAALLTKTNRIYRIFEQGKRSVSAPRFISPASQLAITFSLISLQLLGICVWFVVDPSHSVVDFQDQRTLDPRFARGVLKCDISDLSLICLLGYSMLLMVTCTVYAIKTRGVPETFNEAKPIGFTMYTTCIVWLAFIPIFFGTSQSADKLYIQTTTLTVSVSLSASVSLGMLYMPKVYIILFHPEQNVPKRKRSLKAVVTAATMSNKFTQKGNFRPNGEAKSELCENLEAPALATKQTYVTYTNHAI
# Chain of Metabotropic glutamate receptor 7 (Homo sapiens) (Q14831 whole entry): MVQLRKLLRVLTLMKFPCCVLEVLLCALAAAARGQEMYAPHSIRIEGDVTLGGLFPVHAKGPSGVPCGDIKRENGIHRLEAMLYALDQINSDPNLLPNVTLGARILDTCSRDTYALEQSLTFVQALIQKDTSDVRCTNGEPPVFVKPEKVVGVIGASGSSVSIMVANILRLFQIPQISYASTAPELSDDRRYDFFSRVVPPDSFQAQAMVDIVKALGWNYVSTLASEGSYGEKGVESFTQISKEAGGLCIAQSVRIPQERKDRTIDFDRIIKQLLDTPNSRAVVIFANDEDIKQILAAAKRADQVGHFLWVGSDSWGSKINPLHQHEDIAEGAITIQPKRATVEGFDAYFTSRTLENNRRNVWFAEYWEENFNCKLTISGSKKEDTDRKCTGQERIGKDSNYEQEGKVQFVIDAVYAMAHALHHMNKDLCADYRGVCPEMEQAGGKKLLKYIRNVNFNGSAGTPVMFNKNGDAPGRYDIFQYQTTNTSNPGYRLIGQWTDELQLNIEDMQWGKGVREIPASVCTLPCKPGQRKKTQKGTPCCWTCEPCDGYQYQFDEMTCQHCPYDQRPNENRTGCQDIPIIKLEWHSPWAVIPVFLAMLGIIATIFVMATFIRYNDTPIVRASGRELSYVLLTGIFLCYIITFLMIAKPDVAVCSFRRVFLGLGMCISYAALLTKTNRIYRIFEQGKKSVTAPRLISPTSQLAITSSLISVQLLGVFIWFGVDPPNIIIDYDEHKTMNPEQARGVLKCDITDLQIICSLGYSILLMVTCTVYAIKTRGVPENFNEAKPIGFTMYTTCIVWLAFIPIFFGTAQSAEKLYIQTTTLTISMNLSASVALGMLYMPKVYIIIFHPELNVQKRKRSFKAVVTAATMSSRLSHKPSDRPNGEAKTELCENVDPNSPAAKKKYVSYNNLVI
# Chain of Metabotropic glutamate receptor 5 (Rattus norvegicus) (P31424 21-1203 limits assumed): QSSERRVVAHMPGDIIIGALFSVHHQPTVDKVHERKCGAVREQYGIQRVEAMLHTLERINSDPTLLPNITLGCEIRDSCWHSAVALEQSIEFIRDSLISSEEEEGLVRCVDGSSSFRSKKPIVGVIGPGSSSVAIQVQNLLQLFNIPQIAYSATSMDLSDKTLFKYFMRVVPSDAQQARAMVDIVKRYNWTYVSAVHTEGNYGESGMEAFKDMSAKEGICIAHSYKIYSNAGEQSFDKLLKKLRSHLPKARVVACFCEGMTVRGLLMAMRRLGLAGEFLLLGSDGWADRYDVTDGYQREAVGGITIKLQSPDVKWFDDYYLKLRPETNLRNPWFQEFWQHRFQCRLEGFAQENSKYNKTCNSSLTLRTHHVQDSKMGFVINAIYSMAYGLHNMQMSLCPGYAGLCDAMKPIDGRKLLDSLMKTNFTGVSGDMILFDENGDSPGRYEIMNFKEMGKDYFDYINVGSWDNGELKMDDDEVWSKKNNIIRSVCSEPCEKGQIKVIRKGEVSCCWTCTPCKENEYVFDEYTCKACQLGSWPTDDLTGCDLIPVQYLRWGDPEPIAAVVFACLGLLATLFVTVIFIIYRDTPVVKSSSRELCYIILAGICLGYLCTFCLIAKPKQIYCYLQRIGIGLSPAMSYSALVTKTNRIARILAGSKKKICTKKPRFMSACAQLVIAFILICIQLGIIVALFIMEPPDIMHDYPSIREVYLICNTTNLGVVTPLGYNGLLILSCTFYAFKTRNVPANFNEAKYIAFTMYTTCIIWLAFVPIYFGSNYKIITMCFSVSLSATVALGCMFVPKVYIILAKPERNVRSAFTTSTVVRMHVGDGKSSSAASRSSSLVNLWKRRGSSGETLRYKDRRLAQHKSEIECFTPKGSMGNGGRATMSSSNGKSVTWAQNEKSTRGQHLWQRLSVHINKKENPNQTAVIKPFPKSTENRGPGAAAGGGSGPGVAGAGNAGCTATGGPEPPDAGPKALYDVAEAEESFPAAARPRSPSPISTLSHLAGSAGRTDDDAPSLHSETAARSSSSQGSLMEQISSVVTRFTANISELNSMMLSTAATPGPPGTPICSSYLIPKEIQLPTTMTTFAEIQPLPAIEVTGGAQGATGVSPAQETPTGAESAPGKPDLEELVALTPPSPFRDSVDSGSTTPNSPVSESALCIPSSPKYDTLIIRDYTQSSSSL
IC50 [1] [nM],%max [2] [%],Structure (SMILES),also measured
> 30000,,Cc1ccccc1NC(=O)c1cc(F)cc(C#N)c1,
> 10000,37.4,N#Cc1cc(F)cc(C(=O)Nc2nccs2)c1,
> 10000,38.6,Cc1ccnc(NC(=O)c2cc(F)cc(C#N)c2)c1,
250,2.2,N#Cc1cc(F)cc(C(=O)Nc2cccc(Cl)n2)c1,
1510,17.3,COc1cccc(NC(=O)c2cc(F)cc(C#N)c2)n1,
122,2.1,Cc1cccc(NC(=O)c2cc(F)cc(C#N)c2)c1,"inhibition [3]: inactive; inhibition [4]: inactive; inhibition [5]: inactive; Ki [6]: 100 nM; PPB (Plasma [7]): 98.3%; inhibition [8]: inactive; inhibition [9]: inactive; remaining at 0.25 h, 1 µM [10]: 19.5%; remaining at 0.25 h, 1 µM [11]: 69.7%; PPB (Plasma [12]): 95.3%; inhibition [13]: inactive"
> 10000,69.2,N#Cc1cc(F)cc(C(=O)Nc2ccc(F)cc2)c1,
> 10000,29.7,CC(C)(C)c1csc(NC(=O)c2cc(F)cc(C#N)c2)n1,
594,2.4,Cc1nc(NC(=O)c2cc(F)cc(C#N)c2)sc1C,
> 30000,,N#Cc1cc(F)cc(C(=O)Nc2ccccc2Cl)c1,
59,1,Cc1csc(NC(=O)c2cc(F)cc(C#N)c2)n1,"inhibition [3]: inactive; inhibition [4]: inactive; inhibition [5]: inactive; Ki [6]: 102 nM; Cmax (Plasma [14]): 7650 ng/mL; AUC(0-t) at 4 h [15]: 73000 ng·h/mL; Tmax (Plasma [16]): 15 min; PPB (Plasma [7]): 98.4%; inhibition [8]: inactive; AUC(0-t) at 4 h [17]: 17800 ng·h/mL; Tmax (Brain): 15 min; Kp [18]: 4.1; inhibition [9]: inactive; remaining at 0.25 h, 1 µM [10]: 70.3%; Cmax [19]: 28800 ng/mL; remaining at 0.25 h, 1 µM [11]: 89.9%; PPB (Plasma [12]): 92.4%; inhibition [13]: inactive"
347,2.5,N#Cc1cc(F)cc(C(=O)Nc2cccc(Cl)c2F)c1,
2160,22.1,N#Cc1cc(F)cc(C(=O)Nc2cccc(F)c2)c1,
> 30000,,N#Cc1cc(F)cc(C(=O)NC2CCCCC2)c1,
863,17.5,Cc1cnc(NC(=O)c2cc(F)cc(C#N)c2)s1,
> 30000,,Cc1cc(C)nc(NC(=O)c2cc(F)cc(C#N)c2)c1,
> 30000,,Cc1ccc(NC(=O)c2cc(F)cc(C#N)c2)cc1,
5440,12.5,N#Cc1cc(F)cc(C(=O)Nc2ccccc2)c1,
> 30000,,COc1ccc(NC(=O)c2cc(F)cc(C#N)c2)cc1,
> 10000,19.6,N#Cc1cc(F)cc(C(=O)Nc2cccc(C(F)(F)F)n2)c1,
> 10000,46.7,Cn1ccc(NC(=O)c2cc(F)cc(C#N)c2)n1,
> 30000,,N#Cc1cc(F)cc(C(=O)Nc2cccnc2)c1,

IC50 [1] [nM],%max [2] [%],Structure (SMILES),also measured
> 30000,,N#Cc1cc(F)cc(C(=O)Nc2ccccc2F)c1,
> 30000,,N#Cc1cc(F)cc(C(=O)Nc2ccc(Cl)cc2)c1,
> 30000,,COc1ccccc1NC(=O)c1cc(F)cc(C#N)c1,
900,1.5,N#Cc1cc(F)cc(C(=O)Nc2nc(C3CC3)cs2)c1,
331,2.3,C#Cc1cccc(NC(=O)c2cc(F)cc(C#N)c2)c1,
489,1.4,N#Cc1cccc(NC(=O)c2cc(F)cc(C#N)c2)c1,
3010,5.4,N#Cc1cc(F)cc(C(=O)Nc2ccccn2)c1,
> 30000,,Cc1cccnc1NC(=O)c1cc(F)cc(C#N)c1,
3780,29.8,N#Cc1cc(F)cc(C(=O)Nc2cc(Cl)ccc2F)c1,
505,1.7,CCc1cccc(NC(=O)c2cc(F)cc(C#N)c2)n1,
4940,2.4,CCc1cccc(NC(=O)c2cc(F)cc(C#N)c2)c1,
> 30000,,N#Cc1cc(F)cc(C(=O)Nc2ccncc2)c1,
377,43,N#Cc1cc(F)cc(C(=O)Nc2ccc(F)c(Cl)c2)c1,
> 30000,,N#Cc1cc(F)cc(C(=O)Nc2ccon2)c1,
> 10000,35.5,COc1cccc(NC(=O)c2cc(F)cc(C#N)c2)c1,
> 30000,,CC(C)(C)c1cccc(NC(=O)c2cc(F)cc(C#N)c2)c1,
45,0.6,N#Cc1cc(F)cc(C(=O)Nc2cccc(Cl)c2)c1,"inhibition [3]: inactive; inhibition [4]: inactive; inhibition [5]: inactive; Ki [6]: 206 nM; Cmax (Plasma [14]): 970 ng/mL; AUC(0-t) at 4 h [15]: 1710 ng·h/mL; Tmax (Plasma [16]): 15 min; PPB (Plasma [7]): 97.1%; inhibition [8]: inactive; AUC(0-t) at 4 h [17]: 1200 ng·h/mL; Tmax (Brain): 15 min; Kp [18]: 1.4; inhibition [9]: inactive; remaining at 0.25 h, 1 µM [10]: 18%; Cmax [19]: 1090 ng/mL; remaining at 0.25 h, 1 µM [11]: 96.8%; PPB (Plasma [12]): 93.7%; inhibition [13]: inactive"
> 10000,34.7,N#Cc1cc(F)cc(C(=O)NC2C3CC4CC(C3)CC2C4)c1 (stereo unspecified),
> 30000,,CS(=O)(=O)c1cccc(NC(=O)c2cc(F)cc(C#N)c2)c1,
543,0.9,N#Cc1cc(F)cc(C(=O)Nc2cccc(C(F)(F)F)c2)c1,
65,1.2,Cc1cccc(NC(=O)c2cc(F)cc(C#N)c2)n1,"inhibition [3]: inactive; inhibition [4]: inactive; inhibition [5]: inactive; Ki [6]: 157 nM; PPB (Plasma [7]): 89.9%; inhibition [8]: inactive; inhibition [9]: inactive; remaining at 0.25 h, 1 µM [10]: 7%; remaining at 0.25 h, 1 µM [11]: 46.5%; PPB (Plasma [12]): 84%; inhibition [13]: inactive"
1830,38.5,N#Cc1cc(F)cc(C(=O)Nc2cc(F)cc(Cl)c2)c1,
